Patent US9695155B2, “Herbicidal substituted pyrimidinyloxy benzene compounds” (E. I. DU PONT DE NEMOURS AND COMPANY, priority 2013, dated 2017)

Columns and labels:
waterhemp = experiment: Test C postemergence; type: in vivo, Amaranthus rudis; conditions: for Plant response rating (0 to 100), Waterhemp: postemergence; for Plant response rating, Waterhemp: Postemergence, scale 0 to 100 (0 no effect, 100 complete control)
Method in brief: (§1)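 Visual injury score versus untreated controls, 0 = no effect, 100 = complete control, taken 13 to 15 days after treatment in the greenhouse. Pre-emergence pots held loam/sand; post-emergence plants grew in sphagnum peat/vermiculite mix and were sprayed at the 1- to 4-leaf stage.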

corn [1] = experiment: Test C postemergence; type: in vivo, Zea mays; conditions: for Plant response rating (0 to 100), Corn: postemergence; for Plant response rating, Corn: Postemergence, scale 0 to 100 (0 no effect, 100 complete control)
Method in brief: as §1

johnsongrass = experiment: Test C postemergence; type: in vivo, Sorghum halepense; conditions: for Plant response rating (0 to 100), Johnsongrass: postemergence; for Plant response rating, Johnsongrass: Postemergence, scale 0 to 100 (0 no effect, 100 complete control)
Method in brief: as §1

kochia = experiment: Test C postemergence; type: in vivo, Kochia scoparia; conditions: for Plant response rating (0 to 100), Kochia: postemergence; for Plant response rating, Kochia: Postemergence, scale 0 to 100 (0 no effect, 100 complete control)
Method in brief: as §1

pigweed [2] = experiment: Test A preemergence; type: in vivo, Amaranthus retroflexus; conditions: for Plant response rating, Pigweed: 125 g ai/ha, 0 to 100 scale where 0 is no effect and 100 is complete control; for Pigweed plant response rating: 500 g ai/ha, 0 to 100 scale, 0 no effect, 100 complete control, approx. 10 days
Method in brief: (§2)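 Greenhouse pot test, loam/sand soil. Formulation: non-phytotoxic solvent mix plus surfactant. Pre: directed spray onto soil after sowing. Post: plants at 1–2 leaf, 2–10 cm. Rated visually vs untreated controls at ~10 d, 0 (no effect) to 100 (complete control).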

morningglory = experiment: Test A postemergence; type: in vivo, Ipomoea spp.
Method in brief: as §2

pigweed [3] = experiment: Test A postemergence; type: in vivo, Amaranthus retroflexus
Method in brief: as §2

velvetleaf [4] = experiment: Test A postemergence; type: in vivo, Abutilon theophrasti
Method in brief: as §2

large (Lg) crabgrass [5] = experiment: Test A preemergence; type: in vivo, Digitaria sanguinalis; conditions: for Plant response rating, Crabgrass, Large: 125 g ai/ha, 0 to 100 scale where 0 is no effect and 100 is complete control; for Crabgrass, Large plant response rating: 500 g ai/ha, 0 to 100 scale, 0 no effect, 100 complete control, approx. 10 days
Method in brief: as §2

giant foxtail = experiment: Test C postemergence; type: in vivo, Setaria faberii; conditions: for Plant response rating (0 to 100), Foxtail, Giant: postemergence; for Plant response rating, Foxtail, Giant: Postemergence, scale 0 to 100 (0 no effect, 100 complete control)
Method in brief: as §1

Italian ryegrass = experiment: Test C postemergence; type: in vivo, Lolium multiflorum; conditions: for Plant response rating (0 to 100), Ryegrass, Italian: postemergence; for Plant response rating, Ryegrass, Italian: Postemergence, scale 0 to 100 (0 no effect, 100 complete control)
Method in brief: as §1

pigweed [6] = experiment: Test C postemergence; type: in vivo, Amaranthus retroflexus; conditions: for Plant response rating (0 to 100), Pigweed: postemergence; for Plant response rating, Pigweed: Postemergence, scale 0 to 100 (0 no effect, 100 complete control)
Method in brief: as §1

soybean = experiment: Test C postemergence; type: in vivo, Glycine max; conditions: for Plant response rating (0 to 100), Soybean: postemergence; for Plant response rating, Soybean: Postemergence, scale 0 to 100 (0 no effect, 100 complete control)
Method in brief: as §1

wild oat = experiment: Test C postemergence; type: in vivo, Avena fatua; conditions: for Plant response rating (0 to 100), Oat, Wild: postemergence; for Plant response rating, Oat, Wild: Postemergence, scale 0 to 100 (0 no effect, 100 complete control)
Method in brief: as §1

corn [7] = experiment: Test A postemergence; type: in vivo, Zea mays
Method in brief: as §2

velvetleaf [8] = experiment: Test A preemergence; type: in vivo, Abutilon theophrasti; conditions: for Plant response rating, Velvetleaf: 125 g ai/ha, 0 to 100 scale where 0 is no effect and 100 is complete control; for Velvetleaf plant response rating: 500 g ai/ha, 0 to 100 scale, 0 no effect, 100 complete control, approx. 10 days
Method in brief: as §2

large (Lg) crabgrass [9] = experiment: Test A postemergence; type: in vivo, Digitaria sanguinalis
Method in brief: as §2

barnyardgrass = experiment: Test C postemergence; type: in vivo, Echinochloa crus-galli; conditions: for Plant response rating (0 to 100), Barnyardgrass: postemergence; for Plant response rating, Barnyardgrass: Postemergence, scale 0 to 100 (0 no effect, 100 complete control)
Method in brief: as §1

[10] = 125 g ai/ha, 0 to 100 scale where 0 is no effect and 100 is complete control
[11] = 500 g ai/ha, 0 to 100 scale where 0 is no effect and 100 is complete control
[12] = 500 g ai/ha, 0 to 100 scale, 0 no effect, 100 complete control

N#Cc1cccc(Oc2ncc(Cl)cn2)c1-n1cc(Cl)cn1 [Compound 72]
65: Plant response rating (0 to 100), Foxtail, Giant (giant foxtail; 250 g ai/ha)
50: Plant response rating, Corn (corn [7]; [10])
95: Plant response rating (0 to 100), Waterhemp (waterhemp; 250 g ai/ha) | Plant response rating (0 to 100), Kochia (kochia; 125 g ai/ha) | Plant response rating (0 to 100), Kochia (kochia; 250 g ai/ha) | Plant response rating (0 to 100), Pigweed (pigweed [6]; 250 g ai/ha) | Plant response rating (0 to 100), Soybean (soybean; 250 g ai/ha)
70: Plant response rating, Pigweed (pigweed [6]; 31 g ai/ha, 13 to 15 days)
15: Plant response rating (0 to 100), Corn (corn [1]; 125 g ai/ha)
0: Plant response rating, Johnsongrass (johnsongrass; 31 g ai/ha, 13 to 15 days)
100: Plant response rating, Pigweed (pigweed [2]) | Pigweed plant response rating (pigweed [2]) | Plant response rating, Morningglory (morningglory; [11]) | Plant response rating, Pigweed (pigweed [3]; [10]) | Plant response rating, Pigweed (pigweed [3]; [11]) | Plant response rating, Velvetleaf (velvetleaf [4]; [10]) | Plant response rating, Velvetleaf (velvetleaf [4]; [11]) | Plant response rating, Crabgrass, Large (large (Lg) crabgrass [5]) | Crabgrass, Large plant response rating (large (Lg) crabgrass [5]) | Velvetleaf plant response rating (velvetleaf [8]) | Plant response rating, Crabgrass, Large (large (Lg) crabgrass [9]; [10]) | Plant response rating, Crabgrass, Large (large (Lg) crabgrass [9]; [12])
80: Plant response rating, Pigweed (pigweed [6]; 62 g ai/ha) | Plant response rating, Soybean (soybean; 62 g ai/ha)
60: Plant response rating, Corn (corn [7]; [12])
10: Plant response rating, Corn (corn [1]; 62 g ai/ha) | Plant response rating (0 to 100), Foxtail, Giant (giant foxtail; 125 g ai/ha) | Plant response rating, Foxtail, Giant (giant foxtail; 31 g ai/ha, 13 to 15 days) | Plant response rating, Foxtail, Giant (giant foxtail; 62 g ai/ha) | Plant response rating (0 to 100), Ryegrass, Italian (Italian ryegrass; 125 g ai/ha) | Plant response rating (0 to 100), Ryegrass, Italian (Italian ryegrass; 250 g ai/ha) | Plant response rating (0 to 100), Barnyardgrass (barnyardgrass; 125 g ai/ha)
20: Plant response rating (0 to 100), Corn (corn [1]; 250 g ai/ha)
90: Plant response rating, Kochia (kochia; 31 g ai/ha, 13 to 15 days) | Plant response rating, Kochia (kochia; 62 g ai/ha) | Plant response rating, Morningglory (morningglory; [10]) | Plant response rating (0 to 100), Soybean (soybean; 125 g ai/ha) | Plant response rating, Velvetleaf (velvetleaf [8])
85: Plant response rating (0 to 100), Pigweed (pigweed [6]; 125 g ai/ha)
25: Plant response rating (0 to 100), Johnsongrass (johnsongrass; 250 g ai/ha)
75: Plant response rating (0 to 100), Waterhemp (waterhemp; 125 g ai/ha) | Plant response rating, Waterhemp (waterhemp; 31 g ai/ha, 13 to 15 days) | Plant response rating, Waterhemp (waterhemp; 62 g ai/ha)
35: Plant response rating (0 to 100), Oat, Wild (wild oat; 250 g ai/ha)
5: Plant response rating, Corn (corn [1]; 31 g ai/ha, 13 to 15 days) | Plant response rating (0 to 100), Johnsongrass (johnsongrass; 125 g ai/ha) | Plant response rating, Johnsongrass (johnsongrass; 62 g ai/ha) | Plant response rating, Ryegrass, Italian (Italian ryegrass; 31 g ai/ha, 13 to 15 days) | Plant response rating, Ryegrass, Italian (Italian ryegrass; 62 g ai/ha) | Plant response rating, Oat, Wild (wild oat; 31 g ai/ha, 13 to 15 days) | Plant response rating, Oat, Wild (wild oat; 62 g ai/ha) | Plant response rating, Barnyardgrass (barnyardgrass; 31 g ai/ha, 13 to 15 days) | Plant response rating, Barnyardgrass (barnyardgrass; 62 g ai/ha)
40: Plant response rating (0 to 100), Barnyardgrass (barnyardgrass; 250 g ai/ha)
30: Plant response rating (0 to 100), Oat, Wild (wild oat; 125 g ai/ha)

Fc1cnc(Oc2ccccc2-n2cc(C(F)(F)F)cn2)nc1 [Compound 47]
70: Plant response rating (0 to 100), Pigweed (pigweed [6]; 250 g ai/ha) | Plant response rating, Crabgrass, Large (large (Lg) crabgrass [9]; [10])
65: Plant response rating (0 to 100), Pigweed (pigweed [6]; 125 g ai/ha) | Plant response rating (0 to 100), Soybean (soybean; 125 g ai/ha) | Plant response rating (0 to 100), Soybean (soybean; 250 g ai/ha)
10: Plant response rating, Kochia (kochia; 62 g ai/ha) | Plant response rating, Foxtail, Giant (giant foxtail; 31 g ai/ha, 13 to 15 days)
5: Plant response rating (0 to 100), Corn (corn [1]; 125 g ai/ha) | Plant response rating (0 to 100), Corn (corn [1]; 250 g ai/ha) | Plant response rating (0 to 100), Johnsongrass (johnsongrass; 125 g ai/ha) | Plant response rating (0 to 100), Johnsongrass (johnsongrass; 250 g ai/ha) | Plant response rating, Johnsongrass (johnsongrass; 62 g ai/ha) | Plant response rating, Kochia (kochia; 31 g ai/ha, 13 to 15 days) | Plant response rating (0 to 100), Oat, Wild (wild oat; 250 g ai/ha) | Plant response rating (0 to 100), Barnyardgrass (barnyardgrass; 250 g ai/ha)
60: Plant response rating (0 to 100), Kochia (kochia; 250 g ai/ha)
25: Plant response rating (0 to 100), Kochia (kochia; 125 g ai/ha) | Plant response rating (0 to 100), Foxtail, Giant (giant foxtail; 125 g ai/ha) | Plant response rating, Foxtail, Giant (giant foxtail; 62 g ai/ha)
80: Plant response rating, Morningglory (morningglory; [10]) | Plant response rating (0 to 100), Foxtail, Giant (giant foxtail; 250 g ai/ha)
0: Plant response rating, Corn (corn [1]; 31 g ai/ha, 13 to 15 days) | Plant response rating, Corn (corn [1]; 62 g ai/ha) | Plant response rating, Johnsongrass (johnsongrass; 31 g ai/ha, 13 to 15 days) | Plant response rating (0 to 100), Ryegrass, Italian (Italian ryegrass; 125 g ai/ha) | Plant response rating (0 to 100), Ryegrass, Italian (Italian ryegrass; 250 g ai/ha) | Plant response rating, Ryegrass, Italian (Italian ryegrass; 31 g ai/ha, 13 to 15 days) | Plant response rating, Ryegrass, Italian (Italian ryegrass; 62 g ai/ha) | Plant response rating (0 to 100), Oat, Wild (wild oat; 125 g ai/ha) | Plant response rating, Oat, Wild (wild oat; 31 g ai/ha, 13 to 15 days) | Plant response rating, Oat, Wild (wild oat; 62 g ai/ha) | Plant response rating (0 to 100), Barnyardgrass (barnyardgrass; 125 g ai/ha) | Plant response rating, Barnyardgrass (barnyardgrass; 31 g ai/ha, 13 to 15 days) | Plant response rating, Barnyardgrass (barnyardgrass; 62 g ai/ha)
40: Plant response rating, Pigweed (pigweed [6]; 31 g ai/ha, 13 to 15 days) | Plant response rating, Corn (corn [7]; [10])
90: Plant response rating, Crabgrass, Large (large (Lg) crabgrass [5]) | Plant response rating, Corn (corn [7]; [12])
55: Plant response rating, Pigweed (pigweed [6]; 62 g ai/ha)
35: Plant response rating, Soybean (soybean; 31 g ai/ha, 13 to 15 days)
100: Plant response rating (0 to 100), Waterhemp (waterhemp; 125 g ai/ha) | Plant response rating (0 to 100), Waterhemp (waterhemp; 250 g ai/ha) | Plant response rating, Waterhemp (waterhemp; 31 g ai/ha, 13 to 15 days) | Plant response rating, Waterhemp (waterhemp; 62 g ai/ha) | Plant response rating, Pigweed (pigweed [2]) | Pigweed plant response rating (pigweed [2]) | Plant response rating, Morningglory (morningglory; [12]) | Plant response rating, Pigweed (pigweed [3]; [10]) | Plant response rating, Pigweed (pigweed [3]; [12]) | Plant response rating, Velvetleaf (velvetleaf [4]; [10]) | Plant response rating, Velvetleaf (velvetleaf [4]; [12]) | Crabgrass, Large plant response rating (large (Lg) crabgrass [5]) | Plant response rating, Velvetleaf (velvetleaf [8]) | Velvetleaf plant response rating (velvetleaf [8]) | Plant response rating, Crabgrass, Large (large (Lg) crabgrass [9]; [12])
45: Plant response rating, Soybean (soybean; 62 g ai/ha)
